Data taken from US6143492A, “Optical molecular sensors for cytochrome P450 activity” (Aurora Biosciences Corporation, priority 1999, dated 2000).

Tests used:
Format in all cases: biochemical
[1] = target: T1, CYP 3A4 (Homo sapiens, UniProt P08684); test: Kinetics of fluorogenic substrates with CYP 3A4; conditions: for kcat / kcat/Km / conversion to the same fluorescent product vs the most closely structurally-related substrate / type of kinetics: CYP 3A4; for v (1.25 uM), turnover rate at 1.25 μM: CYP 3A4, substrate 1.25 uM; for v (10 uM), turnover rate at 10 μM: CYP 3A4, substrate 10 uM
T1 construct: NADPH regenerating system
Source text: Whichever of the four abstractable hydrogen atoms (designated H^1 and H^2 in this representation of BOMR) is removed in the initial reaction step, with reference to Reaction Scheme 1 of FIG. 1, the hydroxylation product will spontaneously decompose to the free resorufin dye. In addition, the benzyloxy group, attached to the carbon carrying the two hydrogens designated H^2, contributes an inductive electronic effect on that carbon, which can stabilize the radical formed during abstraction of one of the H^2 hydrogens by a cytochrome P450.
Optimization of assay conditions was, and is preferably, accomplished through statistically validated Design of Experiments methodologies, using the commercial software package "Design-Expert®" produced by Stat-Ease® Inc. The data shown in FIGS. 4 and 5 were obtained with initial optimization.
For further understanding these terms in the context of this invention, attention is directed to FIG. 4 and the analysis of FIG. 4.

[2] = target: CYP 2C19 (Homo sapiens, UniProt P33261); test: Kinetics of fluorogenic substrates with CYP 2C19; conditions: for v (1.25 uM), turnover rate at 1.25 μM: CYP 2C19, substrate 1.25 uM; for v (10 uM), turnover rate at 10 μM: CYP 2C19, substrate 10 uM
[3] = target: CYP 2C9 (Homo sapiens, UniProt P11712); test: Kinetics of fluorogenic substrates with CYP 2C9; conditions: for v (1.25 uM), turnover rate at 1.25 μM: CYP 2C9, substrate 1.25 uM; for v (10 uM), turnover rate at 10 μM: CYP 2C9, substrate 10 uM
Sequence of CYP 2C9 (P11712 whole entry): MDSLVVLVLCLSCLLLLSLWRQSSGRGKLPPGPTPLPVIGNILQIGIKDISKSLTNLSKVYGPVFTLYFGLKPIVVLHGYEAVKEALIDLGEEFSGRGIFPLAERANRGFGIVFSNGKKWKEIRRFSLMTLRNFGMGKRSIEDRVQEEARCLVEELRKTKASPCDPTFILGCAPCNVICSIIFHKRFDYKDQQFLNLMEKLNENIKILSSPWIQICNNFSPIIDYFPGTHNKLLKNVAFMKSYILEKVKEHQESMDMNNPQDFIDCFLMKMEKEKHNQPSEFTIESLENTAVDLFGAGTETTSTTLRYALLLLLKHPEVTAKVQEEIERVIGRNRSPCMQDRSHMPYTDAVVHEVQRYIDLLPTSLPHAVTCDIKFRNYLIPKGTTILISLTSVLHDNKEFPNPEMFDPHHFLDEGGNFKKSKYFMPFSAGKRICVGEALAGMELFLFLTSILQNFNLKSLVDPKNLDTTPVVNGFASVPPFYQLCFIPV

T1 sequence (P08684 whole entry): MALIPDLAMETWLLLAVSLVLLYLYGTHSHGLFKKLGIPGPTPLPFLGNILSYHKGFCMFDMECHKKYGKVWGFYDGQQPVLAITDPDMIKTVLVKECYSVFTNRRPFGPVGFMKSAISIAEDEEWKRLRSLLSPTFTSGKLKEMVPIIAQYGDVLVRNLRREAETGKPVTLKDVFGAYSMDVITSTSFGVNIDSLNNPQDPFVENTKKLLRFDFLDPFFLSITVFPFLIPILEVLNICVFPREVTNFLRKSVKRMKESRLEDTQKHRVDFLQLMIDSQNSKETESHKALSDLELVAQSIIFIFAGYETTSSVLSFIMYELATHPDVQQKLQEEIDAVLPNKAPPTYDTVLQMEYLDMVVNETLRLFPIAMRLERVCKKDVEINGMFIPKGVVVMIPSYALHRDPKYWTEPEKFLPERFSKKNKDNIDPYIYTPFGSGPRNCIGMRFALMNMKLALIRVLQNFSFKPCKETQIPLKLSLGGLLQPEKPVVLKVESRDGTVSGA
Sequence of CYP 2C19 (P33261 whole entry): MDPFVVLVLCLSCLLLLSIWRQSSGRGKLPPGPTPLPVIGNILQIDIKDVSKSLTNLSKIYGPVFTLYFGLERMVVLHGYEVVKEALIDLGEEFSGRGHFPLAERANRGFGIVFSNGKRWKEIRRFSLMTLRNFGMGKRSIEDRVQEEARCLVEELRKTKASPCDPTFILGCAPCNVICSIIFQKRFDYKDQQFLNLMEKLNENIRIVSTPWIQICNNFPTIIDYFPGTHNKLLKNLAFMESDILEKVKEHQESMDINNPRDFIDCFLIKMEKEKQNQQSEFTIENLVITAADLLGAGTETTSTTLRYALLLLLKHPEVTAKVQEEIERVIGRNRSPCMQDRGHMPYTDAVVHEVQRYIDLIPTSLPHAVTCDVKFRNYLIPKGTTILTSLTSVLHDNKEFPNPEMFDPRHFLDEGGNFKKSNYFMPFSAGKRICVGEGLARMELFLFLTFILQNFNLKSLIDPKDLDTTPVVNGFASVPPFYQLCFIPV

Row | kcat [1] | kcat/Km [1] | v (1.25 uM), turnover rate at 1.25 μM [1] | v (10 uM), turnover rate at 10 μM [1] | conversion to the same fluorescent product vs the most closely structurally-related substrate [1] | type of kinetics [1] | conversion to the same fluorescent product vs the most closely structurally-related substrate ([2]; CYP 2C19) | kcat ([2]; CYP 2C19) | kcat/Km ([2]; CYP 2C19) | type of kinetics ([2]; CYP 2C19) | v (1.25 uM), turnover rate at 1.25 μM [2] | v (10 uM), turnover rate at 10 μM [2] | conversion to the same fluorescent product vs the most closely structurally-related substrate ([3]; CYP 2C9) | kcat ([3]; CYP 2C9) | kcat/Km ([3]; CYP 2C9) | type of kinetics ([3]; CYP 2C9) | v (1.25 uM), turnover rate at 1.25 μM [3] | v (10 uM), turnover rate at 10 μM [3] | SMILES
1 | 0.1 s⁻¹ | 14286 M⁻¹ s⁻¹ | 0.4402 min⁻¹ | 4.2041 min⁻¹ | – | – | – | – | – | – | – | – | – | – | – | – | – | – | CC1(C)C2=C(Cl)C(=O)C(Cl)=CC2=Nc2ccc(OCOCc3ccccc3)cc21 [BOMDDAO]
2 | 0.0667 s⁻¹ | – | 0.11 min⁻¹ | 1.41 min⁻¹ | more efficient conversion | Michaelis- | – | – | – | – | – | – | – | – | – | – | – | – | O=c1cc(C(F)(F)F)c2ccc(OCOCc3ccccc3)cc2o1 [BOMFC]
3 | 0.0138 s⁻¹ | 5123 M⁻¹ s⁻¹ | 0.1992 min⁻¹ | 0.6241 min⁻¹ | – | – | – | – | – | – | – | – | – | – | – | – | – | – | O=C(OCc1ccccc1)c1c2oc3cc(OCc4ccccc4)ccc3nc-2ccc1=O [BRCBE]
4 | 0.0017 s⁻¹ | – | 0.03 min⁻¹ | 0.10 min⁻¹ | more efficient conversion | Michaelis- | – | – | – | – | – | – | – | – | – | – | – | – | CCOCOc1ccc2nc3ccc(=O)cc-3oc2c1 [EOMR]
5 | – | – | 0.04 min⁻¹ | 0.81 min⁻¹ | – | linear | – | – | – | – | – | – | – | – | – | – | – | – | O=c1cc(C(F)(F)F)c2ccc(OCc3ccccc3)cc2o1 [BFC, 7-Benzyloxy-4-trifluoromethylcoumarin, reference compound]
6 | – | – | – | – | – | – | more efficient conversion | 0.0083 s⁻¹ | 2604 M⁻¹ s⁻¹ | Michaelis- | 0.14 min⁻¹ | 0.38 min⁻¹ | more efficient conversion | 0.0033 s⁻¹ | 167 M⁻¹ s⁻¹ | Michaelis | 0.01 min⁻¹ | 0.07 min⁻¹ | COCOc1ccc2cc(C#N)c(=O)oc2c1 [MOMCC]
7 | 0.011 s⁻¹ | 7857 M⁻¹ s⁻¹ | 0.323 min⁻¹ | 0.601 min⁻¹ | – | – | – | 0.00283 s⁻¹ | 4048 M⁻¹ s⁻¹ | – | 0.1 min⁻¹ | 0.13 min⁻¹ | – | 0.0067 s⁻¹ | 2564 M⁻¹ s⁻¹ | – | 0.137 min⁻¹ | 0.31 min⁻¹ | CCCCCCCCOCOc1ccc2nc3ccc(=O)cc-3oc2c1 [OOMR, Octyloxymethylresorufin]
8 | 0.0198 s⁻¹ | 4506 M⁻¹ s⁻¹ | 0.2274 min⁻¹ | 0.981 min⁻¹ | – | – | – | 0.0283 s⁻¹ | 4106 M⁻¹ s⁻¹ | – | 0.179 min⁻¹ | 1.043 min⁻¹ | – | – | – | – | – | – | CCCCCCCCOCOc1ccc2cc(C#N)c(=O)oc2c1 [OOMCC]
9 | – | – | – | – | – | – | – | – | – | linear | 0.01 min⁻¹ | 0.07 min⁻¹ | – | 0.0067 s⁻¹ | 85 M⁻¹ s⁻¹ | linear | 0.00 min⁻¹ | 0.04 min⁻¹ | COc1ccc2cc(C#N)c(=O)oc2c1 [3CMC, 3-cyano-7-methoxycoumarin, reference compound]
10 | – | – | – | – | – | – | – | 0.0067 s⁻¹ | 784 M⁻¹ s⁻¹ | – | 0.03 min⁻¹ | 0.23 min⁻¹ | – | – | – | – | – | – | CCN(CC)Cc1cc(=O)oc2cc(OC)ccc12 [DMMC]
